According to patent publication US20230372318A1, “METHODS FOR TREATING A SUBJECT HAVING MULTIPLE SYSTEM ATROPHY” (Theravance Biopharma R&D IP, LLC, priority 2022, published 2023):

How the values were obtained:
rat native SERT = biological target: T1, rat native SERT (Rattus norvegicus, UniProt P31652); experiment: Radioligand binding, [3H]-citalopram, rat cortical membranes; settings: mean (95% confidence intervals)
T1 construct: human recombinant and rat native monoamine transporters; from tissue; host or cells: rat cerebral cortex (membranes; synaptosomes)
T1 sequence (P31652 whole entry): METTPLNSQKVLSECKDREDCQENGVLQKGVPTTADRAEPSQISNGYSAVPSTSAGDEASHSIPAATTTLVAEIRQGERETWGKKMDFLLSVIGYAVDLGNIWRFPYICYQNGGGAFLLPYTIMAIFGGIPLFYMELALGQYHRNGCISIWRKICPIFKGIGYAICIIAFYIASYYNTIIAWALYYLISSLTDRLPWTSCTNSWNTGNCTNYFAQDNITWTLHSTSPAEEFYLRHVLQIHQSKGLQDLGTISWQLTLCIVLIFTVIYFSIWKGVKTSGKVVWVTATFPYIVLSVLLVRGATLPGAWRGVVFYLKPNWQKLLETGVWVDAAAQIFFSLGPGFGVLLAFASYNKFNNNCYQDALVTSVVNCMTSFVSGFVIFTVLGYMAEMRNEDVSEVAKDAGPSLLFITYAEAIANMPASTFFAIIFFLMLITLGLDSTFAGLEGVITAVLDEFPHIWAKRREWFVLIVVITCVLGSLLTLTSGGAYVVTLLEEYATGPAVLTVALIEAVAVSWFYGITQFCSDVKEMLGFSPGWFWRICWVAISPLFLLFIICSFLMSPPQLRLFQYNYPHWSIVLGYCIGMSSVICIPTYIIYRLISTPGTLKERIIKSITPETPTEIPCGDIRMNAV
Source text: (§1) The in vitro pharmacology of ampreloxetine at human recombinant and rat native monoamine transporters was characterized as described in Smith et al., Inter. J. Neuropsychopharmcol. (2015) 1-11; and Tsuruda et al., J. Pharmacol. Toxicol. Meth. (2010) 61:192-204. See also, e.g., U.S. Pat. Nos. 8,304,432 B2 and 8,304,433 B2. Radioligands were sourced commercially (Perkin Elmer LifeSciences or GE Healthcare Life Sciences).
(§2) Briefly, membranes prepared from HEK293 (Human Embryonic Kidney 293) or CHO-K1 (Chinese Hamster Ovary-K1) cells stably transfected with human recombinant SERT (HEK293-hSERT), NET (HEK293-hNET), or DAT (CHO-K1-hDAT) were incubated for 1 hr at 22° C. in the absence, or presence, of 4-[2-(2,4,6-trifluorophenoxymethyl)phenyl]piperidine and [^3H]-citalopram (1.0 nM) for SERT, [^3H]-nisoxetine (2.0 nM) for NET, and [^3H]-WIN35428 (3.0 nM) for DAT in 50 mM Tris-HCl, 120 mM NaCl, 5 mM KCl, 0.025% BSA, 100 μM ascorbic acid, pH 7.4. Rat cortical membrane preparations were incubated with [^3H]-citalopram (2.0 nM) for SERT or [^3H]-nisoxetine (4.0 nM) for NET for 1 hr at 22° C. […] Binding and uptake assays were terminated by rapid filtration and radioactivity determined by liquid scintillation spectroscopy. […] Selectivity for NET (rounded to one significant figure) was determined as follows: […]

[1] = Rat oral pharmacokinetics, one-compartment PK/PD model; format: in vivo
Protocol: Adult male Sprague Dawley rats (Charles River) were housed under controlled laboratory conditions (temperature at 21±1° C.) on a 12:12 hour light-dark cycle. Animals were given free access to food and water upon arrival to the facility and animals were acclimatized to their holding room for at least 48 hours. Animals were fasted but allowed free access to water for 15-18 hours prior to dosing.
Rats (n=6/timepoint/dose level) received a single oral dose of 4-[2-(2,4,6-trifluorophenoxymethyl)phenyl]piperidine (0.3, 1, 5, 10, 30, and 60 mg/kg) and were euthanized by decapitation at specified time points (0.5, 2, 4, 6, and 8 hr for 5 mg/kg dose level; 2 hr for 0.3, 1, 10, 30, and 60 mg/kg dose levels) post-administration. Spinal cords were dissected for ex vivo transporter occupancy and PK assessments from the same animals. The spinal cord was harvested by hydraulic extrusion using phosphate-buffered saline, and the lumbar segment dissected and frozen on dry ice. The remaining spinal cord segments were collected and homogenized in water (25% w/w) for PK analysis. All samples were stored at −80° C. until analysis.
A kinetic radioligand binding assay was used to determine NET and SERT occupancy in rat spinal cord, as described previously in Bourdet et al., J. Pharm. Exp. Ther. (2012) 341:137-145. PK/PD parameters were estimated by a compartmental modeling approach (WinNonlin Version 5.0.1, Pharsight Corporation). One- and two-compartment PK models with first-order absorption and elimination were evaluated. The one-compartment model was selected. The pharmacodynamics model was an effect compartment Emax model linked directly to the central PK compartment (WinNonlin PK Model 3, PD Model 101). Selection of models was based upon best fit in terms of visual inspection, Akaike Information Criteria, and weighted residual sum of squares using the Gauss-Newton minimization method.

rat native NET = biological target: T2, rat native NET (Rattus norvegicus, UniProt Q63380); experiment: Radioligand binding, [3H]-nisoxetine, rat cortical membranes; settings: mean (95% confidence intervals)
T2 construct: human recombinant and rat native monoamine transporters; from tissue; host or cells: rat cerebral cortex (membranes; synaptosomes)
T2 sequence (Q63380 1-617): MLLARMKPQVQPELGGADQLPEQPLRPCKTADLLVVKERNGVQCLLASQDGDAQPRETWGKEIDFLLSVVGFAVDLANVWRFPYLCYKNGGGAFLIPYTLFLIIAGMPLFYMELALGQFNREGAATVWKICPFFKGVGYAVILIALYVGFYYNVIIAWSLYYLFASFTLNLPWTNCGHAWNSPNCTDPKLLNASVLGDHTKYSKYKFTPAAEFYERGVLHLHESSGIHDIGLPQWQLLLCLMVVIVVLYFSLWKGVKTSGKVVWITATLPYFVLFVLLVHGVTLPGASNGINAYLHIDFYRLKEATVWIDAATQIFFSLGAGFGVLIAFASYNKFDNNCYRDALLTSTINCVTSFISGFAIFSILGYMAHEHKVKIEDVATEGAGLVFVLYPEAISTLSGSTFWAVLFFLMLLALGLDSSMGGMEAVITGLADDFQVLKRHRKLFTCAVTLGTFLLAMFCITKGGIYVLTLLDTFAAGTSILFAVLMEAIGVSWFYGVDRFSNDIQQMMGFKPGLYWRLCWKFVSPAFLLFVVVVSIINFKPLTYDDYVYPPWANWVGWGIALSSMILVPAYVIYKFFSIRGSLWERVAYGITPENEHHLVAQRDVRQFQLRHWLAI
Source text: as §1, §2

With `Fc1cc(F)c(OCc2ccccc2C2CCNCC2)c(F)c1` [Ampreloxetine, 4-[2-(2,4,6-trifluorophenoxymethyl)phenyl]piperidine] the “Transporter Binding: pKi, SERT” value (rat native SERT) was 8.5 (8.3, 8.6), the “V/F, volume of the central compartment divided by oral bioavailability” value [1] was 54.8 L/kg and the “k01, first-order absorption rate constant” value [1] was 0.777 h⁻¹. For the same compound, the “k10, elimination rate constant from the central compartment” value [1] was 0.319 h⁻¹ and the “Transporter Binding: pKi, NET” value (rat native NET) was 8.7 (8.5, 8.9).
